# Laboratory results: paper PMC8655881 (Cancer research, 2021)
# Columns and labels:
# small intestines = assay: PAS staining of small intestine, 5 daily treatments; assay type: in vivo; settings: 5 daily i.p. treatments; NADI-351 up to 40 mg/kg, DBZ 10 mg/kg
# OE33 cells = settings: read-out: EC50, OE33 colony formation and other Notch-dependent cell lines; as previously reported; cited from earlier work
# hNotch1^ICD = assay: Inducible Notch1^ICD-driven luciferase reporter assay in 293A cells; assay type: cell-based, human; settings: read-out: IC50, inducible Notch1^ICD-responsive luciferase reporter, 24 h, normalized to cell viability
Structure (SMILES),GI toxicity / goblet cell metaplasia (PAS staining) (small intestines),EC50 (OE33 cells) [µM],IC50 (hNotch1^ICD) [µM]
C[C@H](NC(=O)Cc1cc(F)cc(F)c1)C(=O)N[C@@H]1C(=O)N(C)c2ccccc2-c2ccccc21 [DBZ],induction of goblet cell metaplasia,–,–
C[C@H](NC(=O)Cc1cc(F)cc(F)c1)C(=O)N[C@H](C(=O)OC(C)(C)C)c1ccccc1 [DAPT],–,10 to 15,–
CCOC(=O)COc1ccc(/C=C2\SC(=S)NC2=O)cc1OC [IMR-1],–,10 to 15,> 40
